Experimental data as given in patent US20220016183A1, “EXOSOME AND VARIOUS USES THEREOF” (PROSTEMICS CO., LTD., priority 2018, published 2022).

Test system: Dermal papilla cells, DPC
Experiment: Dermal papilla cell (DPC) proliferation, CCK-8
Type: cell-based
Details: 10 μM, 24 hours
Description: After dispensing a serum medium with 10,000 cells/well of papillary cells (Dermal papilla cells, DPC) in a 96-well microplate, the cells were incubated overnight at 37° C. in a CO2 incubator. […] After removing the treated material from each cell and dispensing the CCK-8 solution thereto, the cells were incubated in the CO2 incubator at 37° C. for 2 hours, and absorbance was measured at 450 nm.

## Nc1cc(N2CCCCC2)nc(N)[n+]1[O-] [M1, Minoxidil]
  DPC proliferation rate (%): 118.97%
